Test results from the supplement of paper PMC10307832.

What was measured:
Test in all cases: relative viability (nuclei count vs DMSO), 5 days (fraction); higher = more cells survive
A-427 = tested on: A-427
In short: (§1)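 Relative viability divides the nuclei count in treated wells by that in vehicle wells. Lung cancer cell lines were seeded in 1536-well plates, dosed by pin tool the next day, and fixed and stained after 5 days in one step with final 0.05% Triton X-100, 1% formaldehyde and 1 ug/ml Hoechst. Dosing was a single drug or a fixed anchor-drug dose plus five library-drug doses (not always all listed) in √10 steps, and values are medians of duplicate plates imaged at 4×.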

ABC-1 = tested on: ABC-1
In short: as §1

CAL-12T = tested on: CAL-12T
In short: as §1

H3255 = tested on: H3255
In short: as §1

LC-2-ad = tested on: LC-2-ad
In short: as §1

LCLC-97TM1 = tested on: LCLC-97TM1
In short: as §1

LK-2 = tested on: LK-2
In short: as §1

NCI-H1355 = tested on: NCI-H1355
In short: as §1

NCI-H1395 = tested on: NCI-H1395
In short: as §1

NCI-H1563 = tested on: NCI-H1563
In short: as §1

NCI-H1651 = tested on: NCI-H1651
In short: as §1

NCI-H1666 = tested on: NCI-H1666
In short: as §1

NCI-H1792 = tested on: NCI-H1792
In short: as §1

NCI-H1915 = tested on: NCI-H1915
In short: as §1

NCI-H2085 = tested on: NCI-H2085
In short: as §1

NCI-H2087 = tested on: NCI-H2087
In short: as §1

NCI-H2228 = tested on: NCI-H2228
In short: as §1

NCI-H322M = tested on: NCI-H322M
In short: as §1

NCI-H358 = tested on: NCI-H358
In short: as §1

NCI-H661 = tested on: NCI-H661
In short: as §1

NCI-H838 = tested on: NCI-H838
In short: as §1

PC-3 [JPC-3] = tested on: PC-3 [JPC-3]
In short: as §1

RERF-LC-KJ = tested on: RERF-LC-KJ
In short: as §1

SK-MES-1 = tested on: SK-MES-1
In short: as §1

UMC-11 = tested on: UMC-11
In short: as §1

CCCCCCCCCCCC1=C(O)C(=O)C=C(O)C1=O [Embelin] + COc1cccc2cc(-c3nc([C@H]4CC[C@H](C(=O)O)CC4)n4ncnc(N)c34)[nH]c12 [OSI-027] (partner 0.5 µM)
relative viability (A-427; first compound 0.08 µM): 0.424
relative viability (A-427; first compound 0.8 µM): 0.495
relative viability (A-427; first compound 2.53 µM): 0.439
relative viability (A-427; first compound 8 µM): 0.497
relative viability (ABC-1; first compound 0.08 µM): 0.58
relative viability (ABC-1; first compound 0.8 µM): 0.646
relative viability (ABC-1; first compound 2.53 µM): 0.472
relative viability (ABC-1; first compound 8 µM): 0.552
relative viability (CAL-12T; first compound 0.08 µM): 0.538
relative viability (CAL-12T; first compound 0.8 µM): 0.817
relative viability (CAL-12T; first compound 2.53 µM): 0.513
relative viability (CAL-12T; first compound 8 µM): 0.665
relative viability (H3255; first compound 0.08 µM): 0.586
relative viability (H3255; first compound 0.8 µM): 0.628
relative viability (H3255; first compound 2.53 µM): 0.63
relative viability (H3255; first compound 8 µM): 0.587
relative viability (LC-2-ad; first compound 0.08 µM): 0.85
relative viability (LC-2-ad; first compound 0.8 µM): 1.02
relative viability (LC-2-ad; first compound 2.53 µM): 0.97
relative viability (LC-2-ad; first compound 8 µM): 0.516
relative viability (LCLC-97TM1; first compound 0.08 µM): 0.376
relative viability (LCLC-97TM1; first compound 0.8 µM): 0.638
relative viability (LCLC-97TM1; first compound 2.53 µM): 0.494
relative viability (LCLC-97TM1; first compound 8 µM): 0.589
relative viability (LK-2; first compound 0.08 µM): 0.246
relative viability (LK-2; first compound 0.8 µM): 0.226
relative viability (LK-2; first compound 2.53 µM): 0.22
relative viability (LK-2; first compound 8 µM): 0.194
relative viability (NCI-H1355; first compound 0.08 µM): 0.445
relative viability (NCI-H1355; first compound 0.8 µM): 0.559
relative viability (NCI-H1355; first compound 2.53 µM): 0.422
relative viability (NCI-H1355; first compound 8 µM): 0.279
relative viability (NCI-H1395; first compound 0.08 µM): 0.657
relative viability (NCI-H1395; first compound 0.8 µM): 0.702
relative viability (NCI-H1395; first compound 2.53 µM): 0.615
relative viability (NCI-H1395; first compound 8 µM): 0.549
relative viability (NCI-H1563; first compound 0.08 µM): 0.65
relative viability (NCI-H1563; first compound 0.8 µM): 0.772
relative viability (NCI-H1563; first compound 2.53 µM): 0.71
relative viability (NCI-H1563; first compound 8 µM): 0.758
relative viability (NCI-H1651; first compound 0.08 µM): 0.749
relative viability (NCI-H1651; first compound 0.8 µM): 0.677
relative viability (NCI-H1651; first compound 2.53 µM): 0.801
relative viability (NCI-H1651; first compound 8 µM): 0.776
relative viability (NCI-H1666; first compound 0.08 µM): 0.798
relative viability (NCI-H1666; first compound 0.8 µM): 0.935
relative viability (NCI-H1666; first compound 2.53 µM): 0.871
relative viability (NCI-H1666; first compound 8 µM): 0.865
relative viability (NCI-H1792; first compound 0.08 µM): 0.746
relative viability (NCI-H1792; first compound 0.8 µM): 0.884
relative viability (NCI-H1792; first compound 2.53 µM): 0.711
relative viability (NCI-H1792; first compound 8 µM): 0.838
relative viability (NCI-H1915; first compound 0.08 µM): 0.679
relative viability (NCI-H1915; first compound 0.8 µM): 0.707
relative viability (NCI-H1915; first compound 2.53 µM): 0.602
relative viability (NCI-H1915; first compound 8 µM): 0.653
relative viability (NCI-H2085; first compound 0.08 µM): 0.743
relative viability (NCI-H2085; first compound 0.8 µM): 0.84
relative viability (NCI-H2085; first compound 2.53 µM): 0.699
relative viability (NCI-H2085; first compound 8 µM): 0.646
relative viability (NCI-H2087; first compound 0.08 µM): 0.5
relative viability (NCI-H2087; first compound 0.8 µM): 0.543
relative viability (NCI-H2087; first compound 2.53 µM): 0.656
relative viability (NCI-H2087; first compound 8 µM): 0.628
relative viability (NCI-H2228; first compound 0.08 µM): 0.697
relative viability (NCI-H2228; first compound 0.8 µM): 0.673
relative viability (NCI-H2228; first compound 2.53 µM): 0.726
relative viability (NCI-H2228; first compound 8 µM): 0.485
relative viability (NCI-H322M; first compound 0.08 µM): 0.523
relative viability (NCI-H322M; first compound 0.8 µM): 0.744
relative viability (NCI-H322M; first compound 2.53 µM): 0.645
relative viability (NCI-H322M; first compound 8 µM): 0.512
relative viability (NCI-H358; first compound 0.08 µM): 0.774
relative viability (NCI-H358; first compound 0.8 µM): 1.01
relative viability (NCI-H358; first compound 2.53 µM): 0.898
relative viability (NCI-H358; first compound 8 µM): 1.07
relative viability (NCI-H661; first compound 0.08 µM): 0.763
relative viability (NCI-H661; first compound 0.8 µM): 0.784
relative viability (NCI-H661; first compound 2.53 µM): 0.8
relative viability (NCI-H661; first compound 8 µM): 0.769
relative viability (NCI-H838; first compound 0.08 µM): 0.403
relative viability (NCI-H838; first compound 0.8 µM): 0.463
relative viability (NCI-H838; first compound 2.53 µM): 0.38
relative viability (NCI-H838; first compound 8 µM): 0.436
relative viability (PC-3 [JPC-3]; first compound 0.08 µM): 0.759
relative viability (PC-3 [JPC-3]; first compound 0.8 µM): 0.752
relative viability (PC-3 [JPC-3]; first compound 2.53 µM): 0.829
relative viability (PC-3 [JPC-3]; first compound 8 µM): 0.867
relative viability (RERF-LC-KJ; first compound 0.08 µM): 0.585
relative viability (RERF-LC-KJ; first compound 0.8 µM): 0.529
relative viability (RERF-LC-KJ; first compound 2.53 µM): 0.545
relative viability (RERF-LC-KJ; first compound 8 µM): 0.494
relative viability (SK-MES-1; first compound 0.08 µM): 0.648
relative viability (SK-MES-1; first compound 0.8 µM): 0.66
relative viability (SK-MES-1; first compound 2.53 µM): 0.572
relative viability (SK-MES-1; first compound 8 µM): 0.521
relative viability (UMC-11; first compound 0.08 µM): 0.441
relative viability (UMC-11; first compound 0.8 µM): 0.492
relative viability (UMC-11; first compound 2.53 µM): 0.511
relative viability (UMC-11; first compound 8 µM): 0.51
